Experimental data reported in patent US20050233984A1, “Composition for preventing or treating degenerative brain diseases comprising a hydrolysate of ginsenosides” (Digital Biotech Co., Ltd., priority 2002, published 2005).

Key:
synaptophysin = test: Synaptic density: synaptophysin in hippocampus and cortex by Western blotting; assay type: in vivo; settings: 0.5 mg/kg intraperitoneally once a day for 4 days, C57BL/6 mice
Description: 1 mg/kg of ginsenoside Rc or Mc, or compound Y or K, or 0.5 mg/kg of PPD or PPT was intraperitoneally administered to C57BL/6 mice (9-week old, weight: about 25 g) once a day for 4 days. Then, the brain of the mouse was removed and the hippocampus and cortex were separated therefrom. The amounts of synaptophysin, a protein marker of synaptic vesicle, in the hippocampus and cortex were quantified with Western blotting and an image analysis with a densitometer (LAS100, Fujifilm, Japan) employing a synaptophysin-specific antibody (Cat #902 314, Boehringer Mannheim, Germany).

[1] = system: neuroblastoma B103 cell line; test: MTT test: anti-oxidative effect, H2O2 in place of beta-amyloid; assay type: cell-based; settings: B103 cells, H2O2-only control = 100%
Description: (§1) 5×10^3 cells of neuroblastoma B103 cell line (donated by Dr. David Schubert of the Salk Institute, USA) were placed in each well of a 96-well plate with 100 μl of DMEM (Dulbecco's Minimal Eagle's Medium) containing 10% fetal bovine serum (FBS), and cultured at 37° C. under 8% CO2 for 1 day. After changing the medium to serum-free DMEM, the cells were treated with various concentrations of test compounds and, 1 hour later, with 25 μM of beta-amyloid (25-35 peptide; US peptide, CA, USA). The cells were cultured at 37° C. for 18 hours, treated with 15 μl of MTT solution [10 mg/ml solution of 3-(4,5-dimethyl-2-thiazolyl)-2,5-diphenyl-2H-tetrazolium bromide in phosphate buffered saline (PBS)], and allowed to react at 37° C. for 3 to 4 hours. 100 μl of lysis buffer (10% SDS, 50% dimethylformamide, pH 4.7) was added to the wells, and the cells were cultured overnight at room temperature and relative humidity of 90%. Optical density (OD) of each well was measured at […] and 630 nm, respectively, using a scanning multiwell spectrophotometer, and then the OD value at 630 nm was subtracted from that at 570 nm.
In order to examine whether compounds originating from ginseng can block oxidative stress, the procedure of Example 1 was repeated except for using 1 μM of H2O2 in place of beta-amyloid, and the survival rates of the neural cells were determined.

[2] = system: neuroblastoma B103 cell line; test: MTT test: apoptosis induced by staurosporin; assay type: cell-based; settings: B103 cells, staurosporin-only control = 100%
Description: as §1
Further, in order to examine whether compounds originating from ginseng can block apoptosis, […], and the survival rates of the neural cells were determined.

beta-secretase = molecular target: T1, beta-secretase (Rattus norvegicus, UniProt P56819); test: β-secretase inhibitory activity, fluorometric, B103 cell extract; assay type: biochemical
T1 construct: the cells were lysed up with MEST buffer; endogenous in cells; host or cells: B103 neuroblastoma cell extract (Triton X-100 lysate)
Description: Peptide H4848 (Bachem), a known suppressor of beta-secretase, was used for a comparative agent and PPT was used as a test compound.
1.5×10^6 cells of neuroblastoma B103 cell line secreting APP were plated on a 100 mm dish with DMEM medium containing 10% FBS, and cultured overnight. Then, the cells were lysed up with MEST buffer (20 mM MES, 0.15 M NaCl, 0.5% Triton X-100, pH 6.0 (Bachem)) to obtain a cell extract.
[…] sodium acetate buffer (pH 4.5), distilled water, beta-secretase inhibitor, 5 μM M2465 (Bachem) as a substrate for beta-secretase and MEST buffer were mixed in order, in amounts as shown in Table 5.
The resulting mixtures were reacted at […] for 2 hours, and then read by a fluorometer with 360 nm excitation and 508 nm emission wavelengths. Enzyme inhibitory activity was determined based on the enzyme activity of the control.

[3] = test compound 1 μM alone, without H2O2
[4] = test compound 1 μM + 0.1 μM staurosporin
[5] = test compound 1 μM alone, without staurosporin

T1 sequence (P56819 46-501): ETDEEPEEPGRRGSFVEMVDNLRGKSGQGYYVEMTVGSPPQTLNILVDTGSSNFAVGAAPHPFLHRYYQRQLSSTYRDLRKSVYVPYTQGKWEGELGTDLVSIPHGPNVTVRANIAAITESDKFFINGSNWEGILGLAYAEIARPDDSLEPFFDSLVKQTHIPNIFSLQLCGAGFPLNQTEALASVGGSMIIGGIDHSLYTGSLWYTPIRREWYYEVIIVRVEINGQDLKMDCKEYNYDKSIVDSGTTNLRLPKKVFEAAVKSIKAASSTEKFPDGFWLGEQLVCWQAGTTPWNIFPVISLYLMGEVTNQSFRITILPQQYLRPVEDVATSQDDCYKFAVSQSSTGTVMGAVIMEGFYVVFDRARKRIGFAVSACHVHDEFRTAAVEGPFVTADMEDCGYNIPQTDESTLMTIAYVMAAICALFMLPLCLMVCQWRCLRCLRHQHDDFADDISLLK

| SMILES | amount of synaptophysin in cortex (synaptophysin) | amount of synaptophysin in hippocampus (synaptophysin) | Survival rate (%) ([1]; test compound 1 μM + 1 μM H2O2) | Survival rate (%) [1, 3] [%] | Survival rate (%) [2, 4] [%] | Survival rate (%) [2, 5] [%] | Enzyme Inhibition (% of control) (beta-secretase; 100 nM PPT) | Enzyme Inhibition (% of control) (beta-secretase; 1 μM PPT) | Enzyme Inhibition (% of control) (beta-secretase; 10 μM PPT) | Enzyme Inhibition (% of control) (beta-secretase; 100 μM PPT) | beta-secretase inhibitory activity versus comparative group (in words) (beta-secretase; comparative group: H4848 100 nM) | Survival rate (%) ([1]; test compound 10 μM + 1 μM H2O2) | Survival rate (%) ([1]; test compound 10 μM alone, without H2O2) | Survival rate (%) ([2]; test compound 10 μM + 0.1 μM staurosporin) | Survival rate (%) ([2]; test compound 10 μM alone, without staurosporin) |
| --- | --- | --- | --- | --- | --- | --- | --- | --- | --- | --- | --- | --- | --- | --- | --- |
| CC(C)=CCCC(C)(O)[C@H]1CC[C@]2(C)[C@@H]1[C@H](O)C[C@@H]1[C@@]3(C)CC[C@H](O)C(C)(C)[C@@H]3CC[C@]12C (stereo in doubt) [PPD, protopanaxadiol] | no change | significantly increased | 219.6 ± 3.0 | 494.3 ± 3.5 | 89.2 ± 1.0 | 176.5 ± 3.5 | – | – | – | – | – | – | – | – | – |
| CC(C)=CCC[C@](C)(O)[C@H]1CC[C@]2(C)[C@@H]1[C@H](O)C[C@@H]1[C@@]3(C)CC[C@H](O)C(C)(C)[C@@H]3[C@@H](O)C[C@]12C [PPT, protopanaxatriol] | no change | significantly increased | 381.3 ± 0.9 | 516.1 ± 1.6 | 107.8 ± 2.3 | 169.7 ± 1.6 | 0 % of control | 0.6 % of control | 3.31 % of control | 18.1 % of control | as good as the comparative group | 457.8 ± 2.5 | 516.5 ± 1.2 | 104.6 ± 2.7 | 173.1 ± 1.2 |
